Test results published in US20230159510A1, “NOVEL PRMT5 INHIBITORS” (AMGEN INC., priority 2020, published 2023).

Assays:
HCT116 MTAP null cells = assay: HCT116 proliferation assay, MTAP null cells (CellTiter-Glo, 6 days); format: cell-based; conditions: HCT116-MTAP null, 144 h, read-out: Protif_ HCT116-MTAP null IC50
Outline: (§1)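 Both lines grow in RPMI 1640 containing 10% fetal bovine serum. After an overnight rest, they receive compound at up to 1 or 10 µM in threefold serial dilutions, with vehicle wells holding DMSO only.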

HCT116 WT cells = assay: HCT116 proliferation assay, WT cells (CellTiter-Glo, 6 days); format: cell-based; conditions: Homo sapiens, HCT-116, 144 h, read-out: Prolif_HCT116-WT IC50
Outline: as §1

PRMT5/MEP50 [1] = target: T1, PRMT5/MEP50 (Homo sapiens, UniProt O14744); assay: MTase-Glo methyl transferase assay, Method A (Histone H4 peptide, 1 µM MTA, 24 h pre-incubation); format: biochemical; set-up: made in house; conditions: read-out: PRMT5 MTase Glo Ki (nM, Meth. A)
Outline: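 PRMT5/MEP50 (10 nM) pre-incubated 24 h with compound, 5 µM SAM and 1 µM MTA, then reaction started with 1 µM Histone H4 (1-21) peptide and run 2 h at room temperature in Tris pH 8.0 buffer. SAH formed detected by MTase-Glo luminescence; IC50 and KI from dose-response curves.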
Target sequence in this assay (O14744 whole entry): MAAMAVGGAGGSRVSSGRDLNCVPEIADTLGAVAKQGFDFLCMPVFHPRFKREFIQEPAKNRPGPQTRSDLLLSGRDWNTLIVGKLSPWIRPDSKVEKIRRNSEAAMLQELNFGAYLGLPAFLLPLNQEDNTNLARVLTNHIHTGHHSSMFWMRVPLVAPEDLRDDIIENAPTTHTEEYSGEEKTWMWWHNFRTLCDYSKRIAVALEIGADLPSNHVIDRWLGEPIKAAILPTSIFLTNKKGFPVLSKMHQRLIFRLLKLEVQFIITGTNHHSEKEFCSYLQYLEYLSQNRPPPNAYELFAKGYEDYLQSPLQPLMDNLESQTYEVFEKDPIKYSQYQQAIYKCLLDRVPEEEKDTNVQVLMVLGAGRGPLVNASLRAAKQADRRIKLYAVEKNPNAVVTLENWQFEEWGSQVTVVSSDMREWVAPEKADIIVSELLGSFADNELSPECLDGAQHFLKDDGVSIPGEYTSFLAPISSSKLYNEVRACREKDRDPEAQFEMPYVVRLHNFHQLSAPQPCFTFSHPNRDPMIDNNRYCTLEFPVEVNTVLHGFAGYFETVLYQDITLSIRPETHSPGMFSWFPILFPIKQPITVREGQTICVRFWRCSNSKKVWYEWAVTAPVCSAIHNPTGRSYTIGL
Target sequence in this assay (Q9BQA1 whole entry partner): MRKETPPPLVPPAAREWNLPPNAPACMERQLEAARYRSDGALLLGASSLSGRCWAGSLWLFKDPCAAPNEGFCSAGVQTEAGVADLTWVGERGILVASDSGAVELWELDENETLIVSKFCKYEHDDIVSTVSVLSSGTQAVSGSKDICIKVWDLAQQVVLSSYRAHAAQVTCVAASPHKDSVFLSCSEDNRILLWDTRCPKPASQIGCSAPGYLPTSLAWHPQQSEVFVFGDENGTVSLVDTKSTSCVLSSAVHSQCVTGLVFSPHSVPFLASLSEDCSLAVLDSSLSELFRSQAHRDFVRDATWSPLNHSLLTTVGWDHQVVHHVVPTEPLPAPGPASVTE

PRMT5/MEP50 [2] = target: T1, PRMT5/MEP50; assay: MTase-Glo methyl transferase assay, Method B (FL-Histone H2A, 1 µM MTA, 1 h pre-incubation); format: biochemical; set-up: purchased Reaction Biology Corp RD-11-292; conditions: read-out: PRMT5 MTase Glo Ki (nM, Meth. B)
Protocol: Method B: The PRMT5 inhibitory activity of test compounds was determined using the MTase-Glo™ assay (Promega), which monitors the product (S-adenosyl homocysteine or SAH) of methyltransferase reactions. The PRMT5 MTase-Glo assay was conducted in a 384-well white ProxiPlate (PerkinElmer) in a total volume of 16 µL. The PRMT5 enzymatic reaction (in 8 µL) contained 4 nM PRMT5/MEP50 (Reaction Biology Corp, catalog no.: RD-11-292), 5 µM S-adenosyl methionine (SAM, Promega), 2.5 µM FL-Histone H2A (BPS Bioscience, catalog no.: 52021), 1 µM 5′-methylthioadenosine (MTA, Sigma) and ½ log serially diluted compounds in a reaction buffer of 50 mM Tris (pH 8.0), 50 mM NaCl, 0.01% Tween 20, 0.01% BSA, and 1 mM TCEP. Test compounds were pre-incubated with PRMT5/MEP50, SAM, and MTA for 1 hour before addition of FL-Histone H2A to initiate the PRMT5 reaction. The reaction was allowed to proceed for 20 hours at room temperature and was then terminated by addition of 1 µL of 9X MTase-Glo™ Reagent (Promega). After a 30-minute incubation at room temperature, 8 µL of MTase-Glo™ Detection Solution (Promega) was added and the plate was incubated at room temperature for an additional 30 minutes. The light signal corresponding to the amount of SAH produced by the PRMT5 reaction was subsequently measured using an Envision multimode reader (PerkinElmer). IC50 and KI values were obtained by analyzing dose-response curves using GraphPad Prism®.
Target sequence in this assay (O14744 2-637 limits assumed): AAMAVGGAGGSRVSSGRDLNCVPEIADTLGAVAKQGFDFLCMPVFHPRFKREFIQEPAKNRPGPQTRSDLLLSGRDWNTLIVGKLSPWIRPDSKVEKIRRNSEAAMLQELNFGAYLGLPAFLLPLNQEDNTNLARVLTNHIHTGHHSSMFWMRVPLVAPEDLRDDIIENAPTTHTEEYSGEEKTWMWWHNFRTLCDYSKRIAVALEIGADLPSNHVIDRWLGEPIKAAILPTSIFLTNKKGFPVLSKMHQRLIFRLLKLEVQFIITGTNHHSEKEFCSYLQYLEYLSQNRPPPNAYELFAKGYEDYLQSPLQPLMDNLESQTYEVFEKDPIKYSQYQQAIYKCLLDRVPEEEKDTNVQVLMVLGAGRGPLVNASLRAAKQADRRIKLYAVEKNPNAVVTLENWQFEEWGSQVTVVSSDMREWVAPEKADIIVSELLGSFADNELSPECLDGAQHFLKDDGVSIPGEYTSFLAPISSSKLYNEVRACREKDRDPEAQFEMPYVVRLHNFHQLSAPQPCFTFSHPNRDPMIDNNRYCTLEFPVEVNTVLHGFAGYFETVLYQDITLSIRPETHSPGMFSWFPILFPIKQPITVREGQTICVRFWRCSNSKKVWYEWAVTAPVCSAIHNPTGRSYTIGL
Target sequence in this assay (Q9BQA1 2-342 partner limits assumed): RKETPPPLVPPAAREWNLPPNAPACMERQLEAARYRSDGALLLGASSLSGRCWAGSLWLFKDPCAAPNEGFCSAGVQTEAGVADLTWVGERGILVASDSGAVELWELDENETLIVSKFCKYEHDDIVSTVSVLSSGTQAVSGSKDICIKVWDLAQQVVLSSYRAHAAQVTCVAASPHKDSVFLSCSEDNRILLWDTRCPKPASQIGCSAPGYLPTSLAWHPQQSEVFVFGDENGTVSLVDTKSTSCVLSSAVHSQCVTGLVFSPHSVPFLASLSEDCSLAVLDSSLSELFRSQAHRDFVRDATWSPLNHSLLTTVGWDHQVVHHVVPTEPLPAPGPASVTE

An IC50 (HCT116 MTAP null cells) of 220 nM, an IC50 (HCT116 WT cells) of 2550 nM and a Ki (PRMT5/MEP50 [1]) of 0.32 nM were found for `CC(=O)N1CCC(c2ccc(CN(C(=O)c3ccc4nc(N)c(C)cc4c3)[C@H](C)c3ncccn3)nc2)CC1` [Example 552, N-((5-(1-acetyl-4-piperidinyl)-2-pyridinyl)methyl)-2-amino-3-methyl-N-((1R)-1-(2-pyrimidinyl)ethyl)-6-quinolinecarboxamide] in this work.

An IC50 (HCT116 MTAP null cells) of 454 nM, an IC50 (HCT116 WT cells) of over 10000 nM and a Ki (PRMT5/MEP50 [1]) of 0.36 nM were found for `Cc1cc2cc(C(=O)N(Cc3cnc(C#N)cn3)[C@H](C)c3ncccn3)ccc2nc1N` [Example 553, 2-amino-N-((5-cyano-2-pyrazinyl)methyl)-3-methyl-N-((1R)-1-(2-pyrimidinyl)ethyl)-6-quinolinecarboxamide] in this work.

An IC50 (HCT116 MTAP null cells) of 122 nM, an IC50 (HCT116 WT cells) of 4280 nM and a Ki (PRMT5/MEP50 [1]) of 0.07 nM were found for `Cc1cc2cc(C(=O)N(Cc3ccc(N(C)C)nn3)[C@H](C)c3ncccn3)ccc2nc1N` [Example 554, (R)-2-amino-N-((6-(dimethylamino)pyridazin-3-yl)methyl)-3-methyl-N-(1-(pyrimidin-2-yl)ethyl)quinoline-6-carboxamide] in this work.

An IC50 (HCT116 MTAP null cells) of 125 nM, an IC50 (HCT116 WT cells) of 3820 nM and a Ki (PRMT5/MEP50 [1]) of 0.07 nM were found for `Cc1cc2cc(C(=O)N(Cc3ccc(N4CCOCC4)nn3)[C@H](C)c3ncccn3)ccc2nc1N` [Example 555, (R)-2-amino-3-methyl-N-((6-morpholinopyridazin-3-yl)methyl)-N-(1-(pyrimidin-2-yl)ethyl)quinoline-6-carboxamide] in this work.

An IC50 (HCT116 MTAP null cells) of 342 nM, an IC50 (HCT116 WT cells) of 10100 nM and a Ki (PRMT5/MEP50 [1]) of 4.1 nM were found for `Cc1cc2cc(C(=O)N(Cc3ccc(N4CC5(COC5)C4)cn3)[C@H](C)c3ncccn3)ccc2nc1N` [Example 556, (R)-N-((5-(2-oxa-6-azaspiro[3.3]heptan-6-yl)pyridin-2-yl)methyl)-2-amino-3-methyl-N-(1-(pyrimidin-2-yl)ethyl)quinoline-6-carboxamide] in this work.

An IC50 (HCT116 MTAP null cells) of 42 nM, an IC50 (HCT116 WT cells) of 1730 nM and a Ki (PRMT5/MEP50 [1]) of 0.18 nM were found for `Cc1cc2cc(C(=O)N(Cc3ccc(C4=CCOCC4)cn3)[C@H](C)c3ncccn3)ccc2nc1N` [Example 557, (R)-2-amino-N-((5-(3,6-dihydro-2H-pyran-4-yl)pyridin-2-yl)methyl)-3-methyl-N-(1-(pyrimidin-2-yl)ethyl)quinoline-6-carboxamide] in this work.

An IC50 (HCT116 MTAP null cells) of 38 nM, an IC50 (HCT116 WT cells) of 1300 nM and a Ki (PRMT5/MEP50 [1]) of 0.08 nM were found for `Cc1cc2cc(C(=O)N(Cc3ccc(C4=CCCOC4)cn3)[C@H](C)c3ncccn3)ccc2nc1N` [Example 558, 2-amino-N-((5-(5,6-dihydro-2H-pyran-3-yl)-2-pyridinyl)methyl)-3-methyl-N-((1R)-1-(2-pyrimidinyl)ethyl)-6-quinolinecarboxamide] in this work.

An IC50 (HCT116 MTAP null cells) of 147 nM, an IC50 (HCT116 WT cells) of 2190 nM and a Ki (PRMT5/MEP50 [1]) of 0.07 nM were found for `Cc1cc2cc(C(=O)N(Cc3ccc(C4CCOCC4)cn3)[C@H](C)c3ncccn3)ccc2nc1N` [Example 559, 2-amino-3-methyl-N-((1R)-1-(2-pyrimidinyl)ethyl)-N-((5-(tetrahydro-2H-pyran-4-yl)-2-pyridinyl)methyl)-6-quinolinecarboxamide] in this work.

An IC50 (HCT116 MTAP null cells) of 623 nM, an IC50 (HCT116 WT cells) of over 10000 nM and a Ki (PRMT5/MEP50 [1]) of 0.2 nM were found for `Cc1cc2cc(C(=O)N(Cc3ccc(C(=O)N(C)C)cn3)Cc3ncccc3F)ccc2nc1N` [Example 560, 2-amino-N-((5-(dimethylcarbamoyl)-2-pyridinyl)methyl)-N-((3-fluoro-2-pyridinyl)methyl)-3-methyl-6-quinolinecarboxamide] in this work.

An IC50 (HCT116 MTAP null cells) of 895 nM, an IC50 (HCT116 WT cells) of over 10000 nM and a Ki (PRMT5/MEP50 [1]) of 0.3 nM were found for `Cc1cc2cc(C(=O)N(Cc3ccc(C(=O)N(C)C)cn3)[C@H](C)c3ncccc3F)ccc2nc1N` [Example 561, 2-amino-N-((5-(dimethylcarbamoyl)-2-pyridinyl)methyl)-N-((1R)-1-(3-fluoro-2-pyridinyl)ethyl)-3-methyl-6-quinolinecarboxamide] in this work.

An IC50 (HCT116 MTAP null cells) of 180 nM and a Ki (PRMT5/MEP50 [2]) of 1.99 nM were found for `Cc1cc2cc(C(=O)N(Cc3ccc(C(F)(F)F)cn3)C(C)c3ccc4c(c3)NC(=O)CO4)ccc2nc1N` (centres unmarked) [Example 625, 2-amino-3-methyl-N-(1-(3-oxo-3,4-dihydro-2H-benzo[b][1,4]oxazin-6-yl)ethyl)-N-((5-(trifluoromethyl)pyridin-2-yl)methyl)quinoline-6-carboxamide] in this work.

A Ki (PRMT5/MEP50 [2]) of 42.7 nM was found for `Cc1cc2cc(C(=O)N(Cc3cncnc3)Cc3ccc(C(F)(F)F)cn3)ccc2nc1N` [Example 626, 2-amino-3-methyl-N-(pyrimidin-5-ylmethyl)-N-((5-(trifluoromethyl)pyridin-2-yl)methyl)quinoline-6-carboxamide] in this work.

An IC50 (HCT116 MTAP null cells) of 360 nM and a Ki (PRMT5/MEP50 [2]) of 2.8 nM were found for `Cc1cc2cc(C(=O)N(Cc3ccc(C(F)(F)F)cn3)Cc3ccc[nH]c3=O)ccc2nc1N` [Example 627, 2-amino-3-methyl-N-((2-oxo-1,2-dihydropyridin-3-yl)methyl)-N-((5-(trifluoromethyl)pyridin-2-yl)methyl)quinoline-6-carboxamide] in this work.

An IC50 (HCT116 MTAP null cells) of 770 nM and a Ki (PRMT5/MEP50 [2]) of 5.93 nM were found for `Cc1cc2cc(C(=O)N(CCC3CCC3)Cc3ccc(C(F)(F)F)cn3)ccc2nc1N` [Example 629, 2-amino-N-(2-cyclobutylethyl)-3-methyl-N-((5-(trifluoromethyl)pyridin-2-yl)methyl)quinoline-6-carboxamide] in this work.

A Ki (PRMT5/MEP50 [2]) of 39.6 nM was found for `Cc1cc2cc(C(=O)N(Cc3ccc(N4CCCC4)cc3)CC(C)C)ccc2nc1N` [Example 643, 2-amino-N-isobutyl-3-methyl-N-[(4-pyrrolidin-1-ylphenyl)methyl]quinoline-6-carboxamide] in this work.

A Ki (PRMT5/MEP50 [2]) of 29.3 nM was found for `Cc1cc2cc(C(=O)N(Cc3cccc(-n4cncn4)c3)CC(C)C)ccc2nc1N` [Example 644, 2-amino-N-isobutyl-3-methyl-N-[[3-(1,2,4-triazol-1-yl)phenyl]methyl] quinoline-6-carboxamide] in this work.

A Ki (PRMT5/MEP50 [2]) of 12.6 nM was found for `Cc1cc2cc(C(=O)N(CC#CCO)Cc3ccc(C(F)(F)F)cn3)ccc2nc1N` [Example 658, 2-amino-N-(4-hydroxybut-2-ynyl)-3-methyl-N-[[5-(trifluoromethyl)-2-pyridyl]methyl] quinoline-6-carboxamide] in this work.

A Ki (PRMT5/MEP50 [2]) of 36.8 nM was found for `Cc1cc2cc(C(=O)N(Cc3ccc(C(F)(F)F)cn3)C(C)C(C)n3cccn3)ccc2nc1N` (centres unmarked) [Example 679, 2-amino-3-methyl-N-(1-methyl-2-pyrazol-1-yl-propyl)-N-[[5-(trifluoromethyl)-2-pyridyl]methyl] quinoline-6-carboxamide] in this work.

A Ki (PRMT5/MEP50 [2]) of 23 nM was found for `Cc1cc2cc(C(=O)N(Cc3ccc(C(F)(F)F)cn3)C(CC(N)=O)C3CCOCC3)ccc2nc1N` (centres unmarked) [Example 682, 2-amino-N-(3-amino-3-oxo-1-tetrahydropyran-4-yl-propyl)-3-methyl-N-[[5-(trifluoromethyl)-2-pyridyl]methyl] quinoline-6-carboxamide] in this work.

A Ki (PRMT5/MEP50 [2]) of 36.5 nM was found for `Cc1cc2cc(C(=O)N(Cc3ccc(C(F)(F)F)cn3)C3CC(C#N)C3)ccc2nc1N` (centres unmarked) [Example 697, 2-amino-N-(3-cyanocyclobutyl)-3-methyl-N-[[5-(trifluoromethyl)-2-pyridyl]methyl] quinoline-6-carboxamide] in this work.

A Ki (PRMT5/MEP50 [2]) of 36.4 nM was found for `Cc1cc2cc(C(=O)N(Cc3ccc(C(F)(F)F)cn3)C3CC4(C3)CC(F)(F)C4)ccc2nc1N` [Example 698, 2-amino-N-(2,2-difluorospiro [3.3]heptan-6-yl)-3-methyl-N-[[5-(trifluoromethyl)-2-pyridyl]methyl] quinoline-6-carboxamide] in this work.

A Ki (PRMT5/MEP50 [2]) of 38.1 nM was found for `Cc1cc2cc(C(=O)N(Cc3ccc(C(F)(F)F)cn3)C3CCCC3C#N)cnc2nc1N` (centres unmarked) [Example 700, 7-amino-N-(2-cyanocyclopentyl)-6-methyl-N-[[5-(trifluoromethyl)-2-pyridyl]methyl]-1,8-naphthyridine-3-carboxamide] in this work.

A Ki (PRMT5/MEP50 [2]) of 37.2 nM was found for `Cc1cc2cc(C(=O)N(Cc3ccc(C(F)(F)F)cn3)C3CCCC3C#N)ncc2nc1N` (centres unmarked) [Example 701, 2-amino-N-(2-cyanocyclopentyl)-3-methyl-N-[[5-(trifluoromethyl)-2-pyridyl]methyl]-1,7-naphthyridine-6-carboxamide] in this work.

A Ki (PRMT5/MEP50 [2]) of 31 nM was found for `Cc1cc2cc(C(=O)N(Cc3ccc(C(F)(F)F)cn3)C3CC3(C)C)ccc2nc1N` (centres unmarked) [Example 706, 2-amino-N-(2,2-dimethylcyclopropyl)-3-methyl-N-[[5-(trifluoromethyl)-2-pyridyl]methyl] quinoline-6-carboxamide] in this work.
